Assay results reported in ChEMBL document CHEMBL5042509, “Benzophenone Glucosides and B-Type Proanthocyanidin Dimers from Zambian Cassia abbreviata and Their Trypanocidal Activities” (J Nat Prod, 2022).
Converted amounts (≈) assume the structure as drawn.

Key:
[1] = system: Trypanosoma brucei rhodesiense; assay: Trypanocidal activity against Trypanosoma brucei rhodesiense assessed as parasite growth inhibition at 50 ug/ml incubated for 3 days by Celltiter-Glo luminescence assay; assay type: functional; set-up: scale not given: the % may be the effect or the level left; conditions: dose 50 µg/ml; time 3 day
[2] = system: Trypanosoma brucei rhodesiense; assay: Trypanocidal activity against Trypanosoma brucei rhodesiense IL1501 assessed as parasite growth inhibition at 50 ug/ml incubated for 3 days by Celltiter-Glo luminescence assay; assay type: functional; set-up: scale not given: the % may be the effect or the level left; conditions: dose 50 µg/ml; time 3 day
[3] = system: Trypanosoma brucei brucei; assay: Trypanocidal activity against Trypanosoma brucei brucei GUTat3.1 assessed as parasite growth inhibition incubated for 3 days by Celltiter-Glo luminescence assay; assay type: functional, organism-based; conditions: GUTat3.1, 72 h
Trypanosoma evansi [4] = assay: Trypanocidal activity against Trypanosoma evansi assessed as parasite growth inhibition at 50 ug/ml incubated for 3 days by Celltiter-Glo luminescence assay; assay type: functional; set-up: scale not given: the % may be the effect or the level left; conditions: dose 50 µg/ml; time 3 day
[5] = system: Trypanosoma brucei brucei; assay: Trypanocidal activity against Trypanosoma brucei brucei GUTat3.1 assessed as parasite growth inhibition at 50 ug/ml incubated for 3 days by Celltiter-Glo luminescence assay; assay type: functional; set-up: scale not given: the % may be the effect or the level left; conditions: dose 50 µg/ml; time 3 day
[6] = system: Trypanosoma brucei gambiense; assay: Trypanocidal activity against Trypanosoma brucei gambiense IL1922 assessed as parasite growth inhibition at 50 ug/ml incubated for 3 days by Celltiter-Glo luminescence assay; assay type: functional; set-up: scale not given: the % may be the effect or the level left; conditions: dose 50 µg/ml; time 3 day
[7] = system: Trypanosoma brucei gambiense; assay: Trypanocidal activity against Trypanosoma brucei gambiense IL1922 assessed as parasite growth inhibition incubated for 3 days by Celltiter-Glo luminescence assay; assay type: functional, organism-based; conditions: IL1922, 72 h
[8] = system: Trypanosoma brucei rhodesiense; assay: Trypanocidal activity against Trypanosoma brucei rhodesiense IL1501 assessed as parasite growth inhibition incubated for 3 days by Celltiter-Glo luminescence assay; assay type: functional, organism-based; conditions: IL1501, 72 h
[9] = system: Trypanosoma brucei rhodesiense; assay: Trypanocidal activity against Trypanosoma brucei rhodesiense assessed as parasite growth inhibition incubated for 3 days by Celltiter-Glo luminescence assay; assay type: functional, organism-based; conditions: 72 h
Trypanosoma evansi [10] = assay: Trypanocidal activity against Trypanosoma evansi assessed as parasite growth inhibition incubated for 3 days by Celltiter-Glo luminescence assay; assay type: functional, organism-based; conditions: 72 h
Trypanosoma congolense [11] = assay: Trypanocidal activity against Trypanosoma congolense IL3000 assessed as parasite growth inhibition incubated for 3 days by Celltiter-Glo luminescence assay; conditions: IL3000, 72 h
Trypanosoma congolense [12] = assay: Trypanocidal activity against Trypanosoma congolense IL3000 assessed as parasite growth inhibition at 50 ug/ml incubated for 3 days by Celltiter-Glo luminescence assay; set-up: scale not given: the % may be the effect or the level left; conditions: dose 50 µg/ml; time 3 day

Question: Which results are given for Oc1ccc([C@H]2Oc3cc(O)cc(O)c3C[C@@H]2O)cc1?
Answer: Activity [1]: 99.71%; Activity [2]: 96.07%; IC50 [3]: 38.6 µg/mL (≈ 141 µM); Activity (Trypanosoma evansi [4]): 99.7%; Activity [5]: 98.54%; Activity [6]: 90.28%; IC50 [7]: 46.4 µg/mL (≈ 169 µM); IC50 [8]: 45.7 µg/mL (≈ 167 µM); IC50 [9]: 4.03 µg/mL (≈ 14.7 µM); IC50 (Trypanosoma evansi [10]): 14.4 µg/mL (≈ 52.6 µM); IC50 (Trypanosoma congolense [11]): 28.3 µg/mL (≈ 103 µM); Activity (Trypanosoma congolense [12]): 99.57%
